In patent publication US20260015350A1, “AZAQUINAZOLINE PAN-KRAS INHIBITORS” (Mirati Therapeutics, Inc., priority 2022, published 2026):

Tests used:
[1] = test system: KRas-mediated phosphorylation of ERK in A549 cells; experiment: Inhibition of KRas-mediated phosphorylation of ERK (Cisbio HTRF pERK), A549 cells; type: cell-based; conditions: Homo sapiens, HTRF pERK
In short: (§1)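 Phosphorylated ERK was quantified by HTRF using d2-conjugate and Cryptate antibodies added to lysates for 2 hrs at room temperature.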

[2] = test system: KRas-mediated phosphorylation of ERK in H358 cells; experiment: Inhibition of KRas-mediated phosphorylation of ERK (Cisbio HTRF pERK), H358 cells; type: cell-based; conditions: Homo sapiens, NCI-H358, HTRF pERK
In short: (§2)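 Using 6,000 cells per well, compounds are applied for 3 hrs and cells then lysed at 4° C with shaking for 40 mins. Phospho-ERK is measured by HTRF after 2 hrs of lysate incubation with the d2/Cryptate antibody mixture.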

KRas^G12V = target: T1, KRas^G12V (Homo sapiens, UniProt P01116, G12V); experiment: KRas binding assay (TR-FRET tracer displacement), KRas G12V
T1 construct: Biotinylated KRas (corresponding to amino acids 1-169, produced at Accelegan Inc.); biotin (biotinylated); purchased Accelegan Inc
T1 sequence (P01116 1-169 isoform P01116-2 G12V): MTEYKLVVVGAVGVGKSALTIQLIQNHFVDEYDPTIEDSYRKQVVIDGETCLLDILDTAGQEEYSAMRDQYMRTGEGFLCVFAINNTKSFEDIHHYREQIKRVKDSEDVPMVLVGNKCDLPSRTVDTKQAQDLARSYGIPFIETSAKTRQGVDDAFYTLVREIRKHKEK

[3] = test system: KRas-mediated phosphorylation of ERK in H460 cells; experiment: Inhibition of KRas-mediated phosphorylation of ERK (Cisbio HTRF pERK), H460 cells; type: cell-based; conditions: Homo sapiens, NCI-H460, HTRF pERK
In short: as §2

KRas^G12R = target: T2, KRas^G12R (Homo sapiens, UniProt P01116, G12R); experiment: KRas binding assay (TR-FRET tracer displacement), KRas G12R
T2 construct: Biotinylated KRas (corresponding to amino acids 1-169, produced at Accelegan Inc.); biotin (biotinylated); purchased Accelegan Inc
T2 sequence (P01116 1-169 isoform P01116-2 G12R): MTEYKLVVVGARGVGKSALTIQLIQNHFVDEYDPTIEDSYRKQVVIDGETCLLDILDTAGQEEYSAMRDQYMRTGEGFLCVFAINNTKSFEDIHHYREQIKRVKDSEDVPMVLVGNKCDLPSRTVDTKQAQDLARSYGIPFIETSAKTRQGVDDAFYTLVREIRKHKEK

KRas^G12D = target: T3, KRas^G12D (Homo sapiens, UniProt P01116, G12D); experiment: KRas binding assay (TR-FRET tracer displacement), KRas G12D
T3 construct: Biotinylated KRas (corresponding to amino acids 1-169, produced at Accelegan Inc.); biotin (biotinylated); purchased Accelegan Inc
T3 sequence (P01116 1-169 isoform P01116-2 G12D): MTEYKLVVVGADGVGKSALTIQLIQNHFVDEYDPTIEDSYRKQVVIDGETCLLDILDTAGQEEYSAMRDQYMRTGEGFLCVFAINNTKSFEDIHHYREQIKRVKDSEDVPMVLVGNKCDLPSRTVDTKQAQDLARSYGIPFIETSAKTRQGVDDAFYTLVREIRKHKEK

[4] = test system: KRas-mediated phosphorylation of ERK in H727 cells; experiment: Inhibition of KRas-mediated phosphorylation of ERK (Cisbio HTRF pERK), H727 cells; type: cell-based; conditions: Homo sapiens, NCI-H727, H727 cells; HTRF pERK
In short: as §2

[5] = test system: KRas-mediated phosphorylation of ERK in PSN1 cells; experiment: Inhibition of KRas-mediated phosphorylation of ERK (Cisbio HTRF pERK), PSN1 cells; type: cell-based; conditions: Homo sapiens
In short: (§3)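 Seeding density was 6,000 cells/well; medium RPMI, 10% FBS. Read-out by homogeneous time-resolved fluorescence (pERK) after 4 hours covered at room temperature.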

[6] = test system: KRas-mediated phosphorylation of ERK in AsPC-1 cells; experiment: Inhibition of KRas-mediated phosphorylation of ERK (Cisbio HTRF pERK), AsPC-1 cells; type: cell-based; conditions: Homo sapiens, ASPC1, AsPC-1 cells; HTRF pERK
In short: as §2

[7] = test system: KRas-mediated phosphorylation of ERK in HCT116 cells; experiment: Inhibition of KRas-mediated phosphorylation of ERK (Cisbio HTRF pERK), HCT116 cells; type: cell-based; conditions: Homo sapiens, HCT-116, HTRF pERK
In short: as §1

[8] = test system: KRas-mediated phosphorylation of ERK in MKN1 cells; experiment: Inhibition of KRas-mediated phosphorylation of ERK (Cisbio HTRF pERK), MKN1 cells; type: cell-based; conditions: Homo sapiens, MKN-1
In short: as §3

Compound	IC50 [1] [nM]	IC50 [2] [nM]	IC50 (KRas^G12V) [nM]	IC50 [3] [nM]	IC50 (KRas^G12R) [nM]	IC50 (KRas^G12D) [nM]	IC50 [4] [nM]	IC50 [5] [nM]	IC50 [6] [nM]	IC50 [7] [nM]	IC50 [8] [nM]
CCc1c(F)ccc2cc(O)cc(-c3ncc4c(N5CCC[C@@](C)(O)C5)nc(OC[C@@]56CCCN5[C@H](COCC5CCC5)CC6)nc4c3F)c12 [Example 852, (R)-1-(2-(((3S,7aS)-3-((cyclobutylmethoxy)methyl)tetrahydro-1H-pyrrolizin-7a(5H)-yl)methoxy)-7-(8-ethyl-7-fluoro-3-hydroxynaphthalen-1-yl)-8-fluoropyrido[4,3-d]pyrimidin-4-yl)-3-methylpiperidin-3-ol]	68	12	< 2	42	< 2	< 2	109	923	35	38	5
CCOC[C@@H]1CC[C@]2(COc3nc(N4CCC[C@@](C)(O)C4)c4cnc(-c5cc(O)cc6ccc(F)c(CC)c56)c(F)c4n3)CCCN12 [Example 853, (R)-1-(2-(((3S,7aS)-3-(ethoxymethyl)tetrahydro-1H-pyrrolizin-7a(5H)-yl)methoxy)-7-(8-ethyl-7-fluoro-3-hydroxynaphthalen-1-yl)-8-fluoropyrido[4,3-d]pyrimidin-4-yl)-3-methylpiperidin-3-ol]	39	10	< 2	23	< 2	< 2	67	1070	33	36	1
CN(C)CC1(COc2nc(N3CCCC4(CCO4)C3)c3cnc(-c4cc(O)cc5ccc(F)c(Cl)c45)c(F)c3n2)CC1 (stereo not shown) [Example 854, 5-chloro-4-(2-((1-((dimethylamino)methyl)cyclopropyl)methoxy)-8-fluoro-4-(1-oxa-6-azaspiro[3.5]nonan-6-yl)pyrido[4,3-d]pyrimidin-7-yl)-6-fluoronaphthalen-2-ol]	36	11	< 2	21	< 2	< 2	48	3690	20	40	6
CCc1c(F)ccc2cc(O)cc(-c3ncc4c(N5CC6CCC(COCCOC)(C6)C5)nc(OC[C@@]56CCCN5C[C@H](F)C6)nc4c3F)c12 (stereo partly drawn) [Example 857, 5-ethyl-6-fluoro-4-(8-fluoro-2-(((2R,7aS)-2-fluorotetrahydro-1H-pyrrolizin-7a(5H)-yl)methoxy)-4-(1-((2-methoxyethoxy)methyl)-3-azabicyclo[3.2.1]octan-3-yl)pyrido[4,3-d]pyrimidin-7-yl)naphthalen-2-ol]	611	369	6	144	9	19	352	> 10000	967	410	6
CCc1c(F)ccc2cc(O)cc(-c3ncc4c(N5CC6CCC(C5)C6C(=O)N(C)C)nc(OC[C@@]56CCCN5C[C@H](F)C6)nc4c3F)c12 (stereo partly drawn) [Example 858, (1R,5S,8S)-3-(7-(8-ethyl-7-fluoro-3-hydroxynaphthalen-1-yl)-8-fluoro-2-(((2R,7aS)-2-fluorotetrahydro-1H-pyrrolizin-7a(5H)-yl)methoxy)pyrido[4,3-d]pyrimidin-4-yl)-N,N-dimethyl-3-azabicyclo[3.2.1]octane-8-carboxamide]	19	43	7	7	10	6	375	> 10000	138	21	3
CCc1c(F)ccc2cc(O)cc(-c3ncc4c(N5CC6CCC(C5)C6CC(N)=O)nc(OC[C@@]56CCCN5C[C@H](F)C6)nc4c3F)c12 (stereo partly drawn) [Example 859, 2-((1R,5S,8S)-3-(7-(8-ethyl-7-fluoro-3-hydroxynaphthalen-1-yl)-8-fluoro-2-(((2R,7aS)-2-fluorotetrahydro-1H-pyrrolizin-7a(5H)-yl)methoxy)pyrido[4,3-d]pyrimidin-4-yl)-3-azabicyclo[3.2.1]octan-8-yl)acetamide]	> 10000	1140	17	892	13	51	5480	> 10000	> 10000	1260	56
CCc1c(F)ccc2cc(O)cc(-c3ncc4c(N5CC6CCC(C5)C6CC(=O)N(C)C)nc(OC[C@@]56CCCN5C[C@H](F)C6)nc4c3F)c12 (stereo partly drawn) [Example 860, 2-((1R,5S,8S)-3-(7-(8-ethyl-7-fluoro-3-hydroxynaphthalen-1-yl)-8-fluoro-2-(((2R,7aS)-2-fluorotetrahydro-1H-pyrrolizin-7a(5H)-yl)methoxy)pyrido[4,3-d]pyrimidin-4-yl)-3-azabicyclo[3.2.1]octan-8-yl)-N,N-dimethylacetamide]	2760	455	13	395	68	91	1120	> 10000	2600	600	7
CCc1c(F)ccc2cc(O)cc(-c3ncc4c(N5CC6CCC(C5)C6C(N)=O)nc(OC[C@@]56CCCN5C[C@H](F)C6)nc4c3F)c12 (stereo partly drawn) [Example 861, 3-(7-(8-ethyl-7-fluoro-3-hydroxynaphthalen-1-yl)-8-fluoro-2-(((2R,7aS)-2-fluorohexahydro-1H-pyrrolizin-7a-yl)methoxy)pyrido[4,3-d]pyrimidin-4-yl)-3-azabicyclo[3.2.1]octane-8-carboxamide]	1340	45	< 2	173	< 2	4	592	> 10000	1450	254	1
CCc1c(F)ccc2cc(O)cc(-c3ncc4c(N5CC6CCC(C5)C6C)nc(OC[C@@]56CCCN5C[C@H](F)C6)nc4c3F)c12 (stereo partly drawn) [Example 862, 5-ethyl-6-fluoro-4-(8-fluoro-2-(((2R,7aS)-2-fluorohexahydro-1H-pyrrolizin-7a-yl)methoxy)-4-((1R,5S,8S)-8-methyl-3-azabicyclo[3.2.1]octan-3-yl)pyrido[4,3-d]pyrimidin-7-yl)naphthalen-2-ol]	7210	1680	60	1110	95	311	3700	> 10000	6210	2870	196
CCc1c(F)ccc2cc(O)cc(-c3ncc4c(N5CC6CCC(C5)C6CC(=O)NC)nc(OC[C@@]56CCCN5C[C@H](F)C6)nc4c3F)c12 (stereo partly drawn) [Example 863, 2-((1R,5S,8S)-3-(7-(8-ethyl-7-fluoro-3-hydroxynaphthalen-1-yl)-8-fluoro-2-(((2R,7aS)-2-fluorotetrahydro-1H-pyrrolizin-7a(5H)-yl)methoxy)pyrido[4,3-d]pyrimidin-4-yl)-3-azabicyclo[3.2.1]octan-8-yl)-N-methylacetamide]	> 10000	1360	32	1990	34	145	4000	> 10000	> 10000	3890	208
Oc1cc(-c2ncc3c(N4CCOCC5(CCO5)C4)nc(OC[C@@]45CCCN4C[C@H](F)C5)nc3c2F)c2c(Cl)c(F)ccc2c1 (stereo partly drawn) [Example 868, 5-chloro-6-fluoro-4-(8-fluoro-2-(((2R,7aS)-2-fluorotetrahydro-1H-pyrrolizin-7a(5H)-yl)methoxy)-4-(1,6-dioxa-9-azaspiro[3.6]decan-9-yl)pyrido[4,3-d]pyrimidin-7-yl)naphthalen-2-ol]	61	12	< 2	22	< 2	< 2	24	3420	17	53	21
